# Experimental data: patent US20230181673A1, “TRI-PEPTIDES AND TREATMENT OF METABOLIC, CARDIOVASCULAR AND INFLAMMATORY DISORDERS” (Diapin Therapeutics, LLC, priority 2018, published 2023)
# Non-standard residues stand in square brackets, D forms with d. No end group written: not given here.
# Legend:
# [1] = obese C57BL/6 mice, chronic glycine supplementation 1 mg/g/day; cited from earlier work
# [2] = test system: hemoglobin-A1c and plasma TNFR1; conditions: T2D patients, 5 g/day for 3 months; cited from earlier work
# plasma glucose = conditions: humans, glycine ingested together with glucose; cited from earlier work
# [3] = test system: WD-induced hepatic steatosis; assay: Liver H&E/ORO histology and hepatic lipid (TG, TC) quantification in WD-fed apoE−/− mice; format: in vivo; conditions: for Hepatic steatosis by H&E staining / HS by histology and lipid quantification: apoE−/− mice on WD; for Hepatic steatosis by H&E staining: 12 weeks; for HS by histology and lipid quantification: endpoint (FIG. 16A-C); for Hepatic TC, decreased by / Hepatic TG, decreased by: extracted hepatic lipids, endpoint, vs WD+H2O
# From the text: (§1) Eight-week-old male apolipoprotein E-deficient (apoE−/−) mice (B6.129P2-Apoetm1Unc/J, Stock No.: 002052) were obtained from Jackson Laboratories. Mice were fed Western diet (WD, 42% of calories from fat and 0.2% cholesterol by weight, Envigo TD.88137). After one week of WD feeding, blood was carefully collected from the facial vein to determine baseline plasma levels of total cholesterol (TC). […] All mice were maintained on a 12-hour light/dark cycle and had ad libitum access to food and water. Body weight and food intake were measured every one and three weeks, respectively
# Histology processing was performed by the In Vivo Animal Core (IVAC) Histology Laboratory within the Unit for Laboratory Animal Medicine (ULAM) of the University of Michigan. Formalin-fixed tissues were processed through graded alcohols and cleared with xylene followed by infiltration with molten paraffin using an automated VIP5 or VIP6 tissue processor (TissueTek, Sakura-Americas). Following paraffin embedding using a Histostar Embedding Station (ThermoFisher Scientific), tissues were sectioned on a M 355S rotary microtome (ThermoFisher Scientific) at 4 μm thickness and mounted on glass slides. Following deparaffinization and hydration with xylene and graded alcohols, slides were stained for hematoxylin and eosin (H&E) using Harris hematoxylin (ThermoFisher Scientific, Cat #842), differentiated with Clarifier (ThermoFisher Scientific, Cat #7401), blued with bluing reagent (ThermoFisher Scientific, Cat #7301), stained with eosin Y, alcoholic (ThermoFisher Scientific, Cat #832), then dehydrated and cleared through graded alcohols and xylene and coverslipped with Micromount (Leica cat #3801731) using a Leica CV5030 automatic coverslipper. Immunohistochemical staining was performed on an IntelliPATH FLX automated immunohistochemical stainer (Biocare Medical, Cat #IPS0001US) and included blocking for endogenous peroxidases and non-specific binding, detection using a horseradish peroxidase biotin-free polymer based commercial detection system, disclosure with diaminobenzidine chromogen, and nuclear counterstaining with hematoxylin. Specific to F4/80, (Bio-Rad ABD Serotec, Cat #MCA497), the rat monoclonal primary antibody (clone CI:A3-1) was diluted to 1:400 in DaVinci Diluent (Biocare Medical, Cat #PD900) and incubated for 60 min followed by detection using Rat-on-Mouse HRP-Polymer, (Biocare Medical, Cat #RT517) 2-step probe-polymer incubation for 10 and 30 min respectively.
# Livers were rapidly removed from the euthanized mice and kept at −80° C. Frozen liver samples (approximately 100 mg) were homogenized in PBS and centrifuged (14,000 RPM, 20 min). The supernatants were collected and analyzed for protein content by the Bio-Rad Bradford assay. To assess liver lipid composition, lipids were extracted from the supernatants using hexane ([…], 32293, Sigma-Aldrich) and isopropanol (≥99.5%, A426-4, Fisher Scientific) at a 3:2 ratio (v:v), and the hexane phase was left for evaporation for 48 h. The amount of liver TG or TC was determined spectrophotometrically using commercially available kits (Wako Chemicals). Data were normalized to protein levels and presented as μg TG or TC/mg protein.
# Livers were rapidly removed from the euthanized mice, snap-frozen with liquid nitrogen, and kept at −80° C. Frozen liver samples (100 mg) were homogenized in PBS and centrifuged (14,000 RPM, 20 min). The supernatants were collected and analyzed for protein content using Bio-Rad Bradford assay. To assess liver lipid composition, lipids were extracted from the supernatants using hexane (≥99%, Sigma-Aldrich 32293) and isopropanol (≥99.5%, Fisher Scientific A428-4) at a 3:2 ratio (v:v), and the hexane phase was left for evaporation for 48 h. […] Liver diacylglycerols (DAG) were determined using ELISA Kit (Aviva Systems Biology, OKEH02607), according to the manufacturer's instructions. Hepatic TG, TC and DAG data were normalized to protein levels.
# [4] = KK-Ay mice, dietary glycine; cited from earlier work
# blood glucose [5] = assay: OGTT and non-fasting/endpoint blood glucose in WD-fed apoE−/− mice; format: in vivo; conditions: for Endpoint glucose levels, lower by: following a 6 h fast, after 12 weeks, vs WD+H2O; for Non-fasting blood glucose 30 min post-gavage vs pre-gavage, decreased by: routine oral gavage, glycine 0.67, leucine 0.33, DT-109/DT-110 1 mg/g; for Acute OGTT: blood glucose 30 min after glucose with treatment / Acute OGTT: blood glucose at later time points (60-120 min): week 10, overnight fast, oral; for Acute OGTT: blood glucose 30 min after glucose with treatment: glucose 2 mg/g plus glycine 0.67, leucine 0.33, DT-109 or DT-110 1 mg/g; for Acute OGTT: blood glucose at later time points (60-120 min): glucose 2 mg/g plus treatment
# From the text: as §1
# At week 10, oral glucose tolerance tests (OGTT) were performed following an overnight fast by administering 2 mg/g of glucose via oral gavage. […] To evaluate the chronic effects of the treatments, mice were administered with glucose alone. […] Then, mice were administered with glucose with (acute) or without (chronic) treatments and blood glucose levels were measured every 30 min for up to 120 min. To assess the effects of the treatments on non-fasting glucose levels, blood was collected from the tip of the tail before routine administration of treatments via oral gavage (pre-gavage) and 30 min afterwards (post-gavage).
# OGTT were performed after 12 h fasting.
# circulating TG = conditions: apoE−/− mice, chronic glycine supplementation 1 mg/g/day; cited from earlier work
# [6] = sucrose-fed rats; cited from earlier work
# blood glucose [7] = assay: OGTT in C57BL/6J mice given glucose with glycine-based compounds; format: in vivo
# Procedure: OGTT were performed in C57BL/6J mice after 12 h fasting (n=6-8).
# OGTT were performed after 12 h fasting. […] Blood glucose concentrations were measured using a blood glucometer and test strips (Contour Next).
# gut microbiota = conditions: mice with established NASH
# Procedure: Total genomic DNA of the gut microbiota was extracted from fecal samples using the QIAamp DNA Stool Mini Kit (51540, Qiagen) according to the manufacturer's instructions. DNA was prepared for community analysis as previously described.17 Briefly, barcoded dual-index primers specific to the V4 region of the 16S rRNA gene were used to amplify the DNA.18 PCR reactions were composed of 5 μL of 4 μM equimolar primer set, 0.15 μL of AccuPrime Taq DNA High Fidelity Polymerase, 2 μL of 10×AccuPrime PCR Buffer II (Thermo Fisher Scientific 12346094), 11.85 μL of PCR-grade water, and 1 μL of DNA template. […] The normalized reactions were pooled and quantified using the Kapa Biosystems Library qPCR MasterMix (ROX Low) Quantification kit for Illumina platforms (KK4873). […]
# DNA sequencing data was processed using Mothur according to SOP and focused primarily on α- and β-diversity based analyses. […] Constrained ordination RDA (redundancy analysis) was calculated, and the significance of environmental variables was checked by forward selection analysis. […] The principal component analysis (PCA) was plotted accordingly using Phyloseq package in R. The correlations between changes in the altered bacterial genera and NAFLD-related parameters in the liver or plasma were calculated using nonparametric Spearman's test.
# [8] = NASH-diet
# Procedure: Body composition was assessed using nuclear magnetic resonance (NMR)-based analyzer (Minispec LF90II; Bruker Optics) at the U-M Animal Phenotyping Core. Oxygen consumption (VO2), carbon dioxide production (VCO2) and motor activity were measured using CLAMS (Columbus Instruments). Respiratory exchange ratio (RER) Is VCO2/VO2.
# All measurements were performed by the University of Michigan Animal Phenotyping Core. Body fat, lean body mass, and free fluids were measured using a nuclear magnetic resonance (NMR)-based analyzer (Minispec LF90II; Bruker Optics). The analyzer is daily checked using a reference sample as recommended by the manufacture. The mice were placed individually into the measuring tube with minimum restrain. Oxygen consumption (VO2), carbon dioxide production (VCO2) and motor activity were measured using CLAMS (Columbus Instruments), an integrated open-circuit calorimeter equipped with an optical beam activity monitoring device. Mice were weighed before the measurements and individually placed into the sealed chambers (7.9″×4″×5″) with free access to food and water. The study was carried out in an experimentation room set at 20-23° C. with 12-12 h dark-light cycles (6:00 PM-6:00 AM). Measurements were carried out continuously for 48 h. During this time, animals were provided with food and water through the feeding and drinking devices located inside the chamber. VO2 and VCO2 in each chamber were sampled sequentially for 5 s in 10 min intervals and the motor activity was recorded every second in X and Z dimensions. The air flow rate through the chambers was adjusted to keep the oxygen differential around 0.3% at resting conditions. Respiratory exchange ratio (RER) was calculated as VCO2/VO2. Total energy expenditure, glucose oxidation and fat oxidation were calculated based on the values of VO2, VCO2, and the protein breakdown.
# (§2) Mice fed CD and administered H2O served as control.
# SMAD2 = conditions: NASH-diet, liver
# Procedure: Liver samples were lysed in radioimmunoprecipitation assay lysis buffer (RIPA buffer, Thermo Scientific) supplemented with a protease/phosphatase inhibitor cocktail (Roche Applied Science). Proteins were resolved in 10% sodium dodecyl sulfate polyacrylamide gel electrophoresis (SDS-PAGE) and transferred to nitrocellulose membranes (Bio-Rad). The membranes were blocked for 1 h at room temperature in tris-buffered saline-Tween 20 (TBST) containing 5% fat-free milk and incubated with primary antibody at 4° C. overnight. The following primary antibodies were used: AGXT1 (Santa Cruz Biotechnology sa-517388, 1:500), HADHA (Proteintech 10758-1-AP, 1:1000), ACAA2 (ABcional A15778, 1:500), phospho-SMAD2 (Ser485/487, Cell Signaling, #3108S; 1:1000), SMAD2 (Cell Signaling Technology, #5339S; 1:1000), GAPDH (Santa Cruz Biotechnology so-365062; 1:2000), or β-Actin (Cell Signaling Technology #3700). The membranes were washed with TBST before incubated with IRDye-conjugated secondary antibodies (LI-COR Biosciences, 1:10000) at room temperature for 1 h. After TBST washing, bands were visualized and quantified using an Odyssey Infrared Imaging System (LI-COR Biosciences, version 2.1).
# as §2
# blood glucose [9] = conditions: previous studies from the applicant's lab; cited from earlier work
# [10] = 0.5 mg/g/day DT-109, compared to the H2O controls
compound,measurement,setting,value
"NCC(=O)O [glycine, reference compound]",Glucose tolerance and fat loss,[1],restore glucose tolerance and accelerate fat loss
same,Hemoglobin-A1c and plasma TNFR1,[2],reduced hemoglobin-A1c and plasma TNFR1
same,Attenuation of the increase in plasma glucose,plasma glucose,> 50%
same,Hepatic steatosis by H&E staining,[3],abolished
same,HS by histology and lipid quantification,[3],reduced HS
same,"Hepatic TC, decreased by",[3],76%
same,"Hepatic TG, decreased by",[3],74%
same,"Glucose tolerance, circulating TG, ALT, HS and inflammatory infiltration",[4],"improved glucose tolerance, lowered circulating TG and alanine-aminotransferase (ALT), while attenuating HS and inflammatory infiltration"
same,"Endpoint glucose levels, lower by",blood glucose [5],41%
same,"Non-fasting blood glucose 30 min post-gavage vs pre-gavage, decreased by",blood glucose [5],10%
same,Acute OGTT: blood glucose 30 min after glucose with treatment,blood glucose [5],most significant effects
same,Acute OGTT: blood glucose at later time points (60-120 min),blood glucose [5],significantly decreased
same,Circulating TG,circulating TG,reduce circulating TG
same,"Intra-abdominal fat, plasma TG and FAO markers in hepatic mitochondria",[6],"reduced intra-abdominal fat, plasma TG and increased FAO markers in hepatic mitochondria"
CC(C)C[C@H](N)C(=O)O [leucine],Hepatic steatosis by H&E staining,[3],marked microvesicular and macrovesicular steatosis
same,"Hepatic TC, decreased by",[3],no significant effects
same,"Hepatic TG, decreased by",[3],no significant effects
same,"Non-fasting blood glucose 30 min post-gavage vs pre-gavage, decreased by",blood glucose [5],trends towards increased blood glucose
Gly-Gly-Leu [DT-109],Glucose-lowering effect in OGTT compared with glycine,"blood glucose [7]; 12 h fasting, glucose 2 mg/g with 0.5 mg/g compound, oral",lowered glucose more efficiently than glycine
same,Glucose-lowering effect in OGTT compared with equivalent levels of free leucine or glycine,blood glucose [7]; DT-109 0.5 mg/g vs leucine 0.17 or glycine 0.33 mg/g,particularly when compared to equivalent levels of its individual AA
same,Bacterial genus Alistipes in gut microbiota,gut microbiota,increased
same,Bacterial genus Clostridium sensu stricto in gut microbiota,gut microbiota,decreased
same,Hepatic steatosis by H&E staining,[3],abolished
same,HS by histology and lipid quantification,[3],reduced HS
same,"Hepatic TC, decreased by",[3],71%
same,"Hepatic TG, decreased by",[3],73%
same,Glucose-lowering in OGTT and in non-fasting glucose,"blood glucose [5]; apoE−/− mice on WD, after 10 weeks, DT-109 1 mg/g/day vs equivalent leucine, glycine or H2O",most potent glucose-lowering effects
same,"Endpoint glucose levels, lower by",blood glucose [5],30%
same,"Non-fasting blood glucose 30 min post-gavage vs pre-gavage, decreased by",blood glucose [5],21%
same,Acute OGTT: blood glucose 30 min after glucose with treatment,blood glucose [5],most significant effects
same,Acute OGTT: blood glucose at later time points (60-120 min),blood glucose [5],significantly decreased
same,Body fat,[8]; [10],reduced body fat
same,Lean mass,[8]; [10],preserved lean mass
same,Respiratory exchange ratio (RER),"[8]; CLAMS weeks 22-23, DT-109 at 0.5 mg/g/day",no significant differences
same,SMAD2 Ser465/467 phosphorylation,SMAD2,reduced SMAD2 Ser465/467 phosphorylation
same,Glucose-lowering effects (previous studies),blood glucose [9],profound glucose-lowering effects
Gly-Gly-[dL] [DT-110],Hepatic steatosis by H&E staining,[3],abolished
same,"Hepatic TC, decreased by",[3],63%
same,"Hepatic TG, decreased by",[3],68%
same,"Non-fasting blood glucose 30 min post-gavage vs pre-gavage, decreased by",blood glucose [5],13%
same,Acute OGTT: blood glucose at later time points (60-120 min),blood glucose [5],significantly decreased
